Laboratory results: PubChem BioAssay AID1963974 (Molecular Pharmacology Branch, DTP, NCI, 2024)

Test system: 648629-189-R-J1-PDC spheroids with HUVEC/MSC, viability
Assay: Anticancer human tumor 648629-189-R-J1-PDC patient-derived bladder carcinoma cell line growth inhibition [PI3K]
Conditions: for IC50: curve of first compound; for viability, T/C: stronger effect = lower value
Summary of the method: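 We assembled tumor spheroids that included a stromal compartment of HUVEC and MSCs, then exposed them to targeted agents alone and together with PI3K pathway inhibitors. Concentration series descended by half-log from clinically achievable Cmax levels. Viability served as the endpoint.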

[1] = second compound 0.0316 µM, first compound 0.0316 µM
[2] = second compound 0.0316 µM, first compound 0.1 µM
[3] = second compound 0.1 µM, first compound 0.0316 µM
[4] = second compound 0.1 µM, first compound 0.1 µM
[5] = second compound 0.316 µM, first compound 0.0316 µM
[6] = second compound 0.316 µM, first compound 0.1 µM
[7] = second compound 1 µM, first compound 0.0316 µM
[8] = second compound 1 µM, first compound 0.1 µM
[9] = second compound 3.16 µM, first compound 0.0316 µM
[10] = second compound 3.16 µM, first compound 0.1 µM
[11] = second compound 10 µM, first compound 0.0316 µM
[12] = second compound 10 µM, first compound 0.1 µM
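Note: spheroids exposed to agents for seven days before reading.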
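Throughout, for viability, T/C: percent of vehicle control luminescence where 100% = DMSO treated spheroids.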

`Cn1nccc1Nc1nccc(-c2ccn(C(CO)c3ccc(Cl)c(F)c3)c(=O)c2)n1` (centres undefined) + CC(Nc1ncnc2nc[nH]c12)c1cc2cccc(Cl)c2c(=O)n1-c1ccccc1 showed an IC50 (second compound 0.0316 µM) greater than 10 µM, an IC50 (second compound 0.1 µM) greater than 10 µM and an IC50 (second compound 0.316 µM) greater than 10 µM. It also gave an IC50 (second compound 1 µM) greater than 10 µM, an IC50 (second compound 3.16 µM) greater than 10 µM and an IC50 (second compound 10 µM) greater than 10 µM. For the same compound, the viability, T/C [1] was 104%, the viability, T/C [2] was 95.8% and the viability, T/C (second compound 0.0316 µM, first compound 0.316 µM) was 101%. The viability, T/C (second compound 0.0316 µM, first compound 1 µM) was 110%, the viability, T/C (second compound 0.0316 µM, first compound 3.16 µM) was 94% and the viability, T/C (second compound 0.0316 µM, first compound 10 µM) was 86.5%. For the same compound, the viability, T/C [3] was 101%, the viability, T/C [4] was 88.9% and the viability, T/C (second compound 0.1 µM, first compound 0.316 µM) was 102%. For the same compound, the viability, T/C (second compound 0.1 µM, first compound 1 µM) was 105%, the viability, T/C (second compound 0.1 µM, first compound 3.16 µM) was 100% and the viability, T/C (second compound 0.1 µM, first compound 10 µM) was 88.4%. The viability, T/C [5] was 116%, the viability, T/C [6] was 96.2% and the viability, T/C (second compound 0.316 µM, first compound 0.316 µM) was 96.8%. It also gave a viability, T/C (second compound 0.316 µM, first compound 1 µM) of 88.7%, a viability, T/C (second compound 0.316 µM, first compound 3.16 µM) of 101% and a viability, T/C (second compound 0.316 µM, first compound 10 µM) of 80.4%. The viability, T/C [7] was 104%, the viability, T/C [8] was 93.9% and the viability, T/C (second compound 1 µM, first compound 0.316 µM) was 101%. The viability, T/C (second compound 1 µM, first compound 1 µM) was 105%, the viability, T/C (second compound 1 µM, first compound 3.16 µM) was 102% and the viability, T/C (second compound 1 µM, first compound 10 µM) was 79.3%. The viability, T/C [9] was 88.5%, the viability, T/C [10] was 103% and the viability, T/C (second compound 3.16 µM, first compound 0.316 µM) was 100%. The viability, T/C (second compound 3.16 µM, first compound 1 µM) was 100%, the viability, T/C (second compound 3.16 µM, first compound 3.16 µM) was 93% and the viability, T/C (second compound 3.16 µM, first compound 10 µM) was 73.6%. It also gave a viability, T/C [11] of 86.5%, a viability, T/C [12] of 80.6% and a viability, T/C (second compound 10 µM, first compound 0.316 µM) of 79.9%. For the same compound, the viability, T/C (second compound 10 µM, first compound 1 µM) was 90.8%, the viability, T/C (second compound 10 µM, first compound 3.16 µM) was 97.7% and the viability, T/C (second compound 10 µM, first compound 10 µM) was 78.5%.

`Cn1ncnc1[C@H]1c2n[nH]c(=O)c3cc(F)cc(c23)N[C@@H]1c1ccc(F)cc1` + CC(Nc1ncnc2nc[nH]c12)c1cc2cccc(Cl)c2c(=O)n1-c1ccccc1 gave an IC50 (second compound 0.0316 µM) greater than 0.1 µM, an IC50 (second compound 0.1 µM) greater than 0.1 µM and an IC50 (second compound 0.316 µM) greater than 0.1 µM. It also gave an IC50 (second compound 1 µM) greater than 0.1 µM, an IC50 (second compound 3.16 µM) greater than 0.1 µM and an IC50 (second compound 10 µM) greater than 0.1 µM. The viability, T/C (second compound 0.0316 µM, first compound 0.000316 µM) was 99.8%, the viability, T/C (second compound 0.0316 µM, first compound 0.001 µM) was 100% and the viability, T/C (second compound 0.0316 µM, first compound 0.00316 µM) was 99.8%. For the same compound, the viability, T/C (second compound 0.0316 µM, first compound 0.01 µM) was 88.1%, the viability, T/C [1] was 67.2% and the viability, T/C [2] was 71%. The viability, T/C (second compound 0.1 µM, first compound 0.000316 µM) was 97.8%, the viability, T/C (second compound 0.1 µM, first compound 0.001 µM) was 101% and the viability, T/C (second compound 0.1 µM, first compound 0.00316 µM) was 98.2%. The viability, T/C (second compound 0.1 µM, first compound 0.01 µM) was 81.2%, the viability, T/C [3] was 93.2% and the viability, T/C [4] was 66.7%. For the same compound, the viability, T/C (second compound 0.316 µM, first compound 0.000316 µM) was 94.2%, the viability, T/C (second compound 0.316 µM, first compound 0.001 µM) was 98.2% and the viability, T/C (second compound 0.316 µM, first compound 0.00316 µM) was 91.9%. It also gave a viability, T/C (second compound 0.316 µM, first compound 0.01 µM) of 92%, a viability, T/C [5] of 85.4% and a viability, T/C [6] of 59.1%. For the same compound, the viability, T/C (second compound 1 µM, first compound 0.000316 µM) was 111%, the viability, T/C (second compound 1 µM, first compound 0.001 µM) was 100% and the viability, T/C (second compound 1 µM, first compound 0.00316 µM) was 97.8%. It also gave a viability, T/C (second compound 1 µM, first compound 0.01 µM) of 82.3%, a viability, T/C [7] of 74.4% and a viability, T/C [8] of 65.1%. It also gave a viability, T/C (second compound 3.16 µM, first compound 0.000316 µM) of 96.4%, a viability, T/C (second compound 3.16 µM, first compound 0.001 µM) of 89.6% and a viability, T/C (second compound 3.16 µM, first compound 0.00316 µM) of 88.7%. For the same compound, the viability, T/C (second compound 3.16 µM, first compound 0.01 µM) was 86.5%, the viability, T/C [9] was 81.6% and the viability, T/C [10] was 58.9%. It also gave a viability, T/C (second compound 10 µM, first compound 0.000316 µM) of 90.4%, a viability, T/C (second compound 10 µM, first compound 0.001 µM) of 86.7% and a viability, T/C (second compound 10 µM, first compound 0.00316 µM) of 80.7%. The viability, T/C (second compound 10 µM, first compound 0.01 µM) was 80.7%, the viability, T/C [11] was 71.1% and the viability, T/C [12] was 55.9%.
